Experimental data: patent publication US11865132B2, “Nucleoside derivatives and methods of use thereof” (Ascletis BioScience Co., Ltd., priority 2021, dated 2024)

Test: Permeability of compounds in Caco-2 assay (bi-directional transport)
Assay type: in vitro ADME
Conditions: human, pH 7.4; for Papp A→B at 2 h, 2 μM / Papp B→A at 2 h, 2 μM: Caco-2 monolayer, pH 7.40; for Papp A→B at 2 h, 2 μM: A to B; for Papp B→A at 2 h, 2 μM: B to A
Procedure: Caco-2 cells purchased from ATCC were seeded onto […] (PET) in 96-well Corning Insert plates at 1×10^5 cells/cm2, and refreshed medium every 4˜5 days until to the 21st to 28th day for confluent cell monolayer formation. The transport buffer in the study was HBSS with 10.0 mM HEPES at pH 7.40±0.05. Test compound was tested at 2.00 μM bi-directionally in duplicate. Digoxin was tested at 10.0 μM bi-directionally in duplicate, while nadolol and metoprolol were tested at 2.00 μM in A to B direction in duplicate. Final DMSO concentration was adjusted to less than 1%. The plate was incubated for 2 hours in CO2 incubator at 37±1° C., with 5% CO2 at saturated humidity without shaking. […] For nadolol and metoprolol, 200 μL supernatant solution was diluted with 600 μL ultra-pure water for LC-MS/MS analysis. For digoxin and test compounds, 200 μL supernatant solution was diluted with 200 μL ultra-pure water for LC-MS/MS analysis Concentrations of test and control compounds in starting solution, donor solution, and receiver solution were quantified by LC-MS/MS methodologies, using peak area ratio of analyte/internal standard. After transport assay, lucifer yellow rejection assay was applied to determine the Caco-2 cell monolayer integrity. The apparent permeability coefficient Papp (cm/s) was calculated using the equation: Papp=(dCr/dt)×Vr/(A×C0) Where dCr/dt is the cumulative concentration of compound in the receiver chamber as a function of time (μM/s); Vr is the solution volume in the receiver chamber (0.075 mL on the apical side, 0.25 mL on the basolateral side); A is the surface area for the transport, i.e. 0.0804 cm2 for the area of the monolayer, CO is the initial concentration in the donor chamber (μM).

| Papp at 2 h, 2 μM (Caco-2, binning criteria Low/Moderate/High, read-out: Papp (permeability bin)) | Papp A→B at 2 h, 2 μM | Papp B→A at 2 h, 2 μM | efflux ratio at 2 h, 2 μM (Papp(BA)/Papp(AB), Caco-2) | SMILES |
| --- | --- | --- | --- | --- |
| 2 to 20 ×10⁻⁶ cm/s | 0.565 ×10⁻⁶ cm/s | 2.04 ×10⁻⁶ cm/s | 3.61 | CC(C)C(=O)OC[C@H]1O[C@@H](n2ccc(NO)nc2=O)[C@@H]2OC(=O)O[C@@H]21 [Compound 1, ((3aR,4R,6R,6aR)-6-((Z)-4-(hydroxyimino)-2-oxo-3,4-dihydropyrimidin-1(2H)-yl)-2-oxotetrahydrofuro[3,4-d][1,3]dioxol-4-yl)methyl isobutyrate] |
|  | < 0.293 ×10⁻⁶ cm/s | 0.527 ×10⁻⁶ cm/s |  | CC(C)C(=O)OC[C@H]1O[C@@H](n2ccc(NO)nc2=O)[C@H](O)[C@@H]1O [molnupiravir, reference compound] |
